Results taken from the Kinase Knowledgebase extract (Sharma et al. 2016).

Molecular target: ROCK2 (human) (UniProt O75116)
Test: Assessment of ROCK2 Kinase Activity

Sequence of ROCK2 (human) (O75116 whole entry, looked up): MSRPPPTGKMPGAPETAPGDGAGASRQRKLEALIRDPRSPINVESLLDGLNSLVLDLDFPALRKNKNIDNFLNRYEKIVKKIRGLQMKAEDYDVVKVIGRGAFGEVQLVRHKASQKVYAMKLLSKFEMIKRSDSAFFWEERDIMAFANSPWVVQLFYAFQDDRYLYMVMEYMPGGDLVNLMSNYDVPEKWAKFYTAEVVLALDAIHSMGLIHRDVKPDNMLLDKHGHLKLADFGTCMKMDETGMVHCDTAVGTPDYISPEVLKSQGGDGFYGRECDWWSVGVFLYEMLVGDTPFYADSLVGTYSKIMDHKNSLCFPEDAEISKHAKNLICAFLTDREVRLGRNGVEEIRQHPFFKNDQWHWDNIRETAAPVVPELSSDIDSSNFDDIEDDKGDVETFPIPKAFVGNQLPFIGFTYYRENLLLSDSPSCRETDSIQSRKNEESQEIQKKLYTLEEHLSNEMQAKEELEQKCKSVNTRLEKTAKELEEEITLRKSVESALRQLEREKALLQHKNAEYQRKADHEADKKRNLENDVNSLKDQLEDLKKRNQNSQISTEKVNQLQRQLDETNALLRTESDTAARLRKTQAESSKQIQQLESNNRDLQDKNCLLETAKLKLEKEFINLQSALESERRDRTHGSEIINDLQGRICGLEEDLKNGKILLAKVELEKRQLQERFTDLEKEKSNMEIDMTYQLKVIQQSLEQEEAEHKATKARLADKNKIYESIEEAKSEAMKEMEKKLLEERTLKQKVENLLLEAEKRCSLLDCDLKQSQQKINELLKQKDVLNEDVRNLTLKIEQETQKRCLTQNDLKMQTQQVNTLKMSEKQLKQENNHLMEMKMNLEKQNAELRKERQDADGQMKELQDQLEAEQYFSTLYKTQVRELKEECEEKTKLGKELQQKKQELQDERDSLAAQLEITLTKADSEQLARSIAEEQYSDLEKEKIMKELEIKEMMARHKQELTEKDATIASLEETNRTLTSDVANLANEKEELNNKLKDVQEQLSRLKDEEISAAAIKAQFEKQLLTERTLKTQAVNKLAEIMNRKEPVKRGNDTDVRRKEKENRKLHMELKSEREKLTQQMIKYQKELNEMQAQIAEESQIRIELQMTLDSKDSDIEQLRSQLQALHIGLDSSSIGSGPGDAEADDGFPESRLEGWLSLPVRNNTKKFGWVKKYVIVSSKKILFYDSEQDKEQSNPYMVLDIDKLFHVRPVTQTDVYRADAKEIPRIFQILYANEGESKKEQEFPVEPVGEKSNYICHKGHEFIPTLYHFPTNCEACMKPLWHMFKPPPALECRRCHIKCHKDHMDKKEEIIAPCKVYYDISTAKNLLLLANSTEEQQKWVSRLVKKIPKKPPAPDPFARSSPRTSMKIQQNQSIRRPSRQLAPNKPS

IC50, ≤ 1 µM:
Cc1cc2c(=O)[nH]ccc2cc1OC[C@@H]1CCNC1
O=c1[nH]ccc2cc(O[C@@H]3CCN(Cc4ccccc4)C3)c(Cl)cc12
O=c1[nH]ccc2cc(OC3CCCNCC3)c(Cl)cc12 (configuration not stated)
N[C@@H](Cc1ccc(Cl)cc1)C(=O)N1CCC(Oc2cc3cc[nH]c(=O)c3cc2Cl)CC1
CN(C)CC(=O)N1CCC(Oc2cc3cc[nH]c(=O)c3cc2Cl)CC1
Cc1cc2c(=O)[nH]ccc2cc1O[C@H]1CCNC1
NCC(=O)N1CCC(Oc2ccc3c(=O)[nH]ccc3c2)CC1
O=c1[nH]ccc2cc(OC3CNC3)c(Cl)cc12
CCCNC(=O)CN1CCC(Oc2cc3cc[nH]c(=O)c3cc2Cl)CC1
Cc1cc2c(=O)[nH]ccc2cc1OC1CCCNCC1 (configuration not stated)
C[C@@H](N)C(=O)N1CCC(Oc2cc3cc[nH]c(=O)c3cc2Cl)CC1
O=C([C@@H]1CCCN1)N1CCC(Oc2cc3cc[nH]c(=O)c3cc2Cl)CC1
